In assay [1] the test system is airway epithelial specific TMEM16A knockout mice. Nature of the assay: Airway mucus in airway epithelial specific TMEM16A knockout mice. Format: in vivo, mouse. Conditions: 1 mg/kg intraperitoneally for 5 days. The procedure: In another set of experiments, airway epithelial specific TMEM16A knockout mice were treated with benzbromarone. Airway epithelial specific TMEM16A knockout mice accumulate mucus in club cells, likely due to a secretory defect (FIG. 20A). Benzbromarone […], intraperitoneally) was applied for 5 days to mice with an airway epithelial specific knockout of TMEM16A. […] Thus benzbromarone is beneficial in the treatment of CF by reducing airway mucus plugging and therefore improving lung function.

The test system of assay [2] is TMEM16A-expressing HEK293 cells. Nature of the assay: FM4-64 fluorescence (exocytosis) in TMEM16A-expressing HEK293 cells. Format: cell-based. The following applies: 10 μM. Here is the method: FIG. 8: TMEM16A controls exocytosis. • A) Whole cell current/voltage relationships obtained in mock transfected and TMEM16A (T16A) expressing HEK293 cells. Stimulation with the Ca^2+ ionophore ionomycin (Iono; 1 μM) activated whole cell currents in TMEM16A-expressing cells (n=12). • B) Increase of FM4-64 fluorescence upon stimulation with ionomycin in mock-transfected and TMEM16A-expressing cells, and inhibition by CaCCinhAO1 (AO1; 10 μM) (n=30). • C) Effect of ATP, or • D) CCH (both 100 μM) on FM4-64 fluorescence in cells expressing P2Y2 or M3 receptors (n=30). Mean±SEM. *significant increase by Iono (paired t-test). #significant difference when compared to mock (unpaired t-test).

In assay [3] the test system is airways of OVA-sensitized mice. Nature of the assay: OVA-induced allergic airway inflammation in mice (alcian blue mucus staining, airway cross section, CD45 infiltration). It counts as in vivo, mouse. Conditions: for OVA-induced mucus production: wt mice, tracheal instillation, niflumic acid 20 μM or niclosamide 5 μM. Here is the method: Intestinal sections were collected for histological analyses. Mouse airways were fixed by transcardial fixation and were embedded in paraffin or were used as cryosections. For paraffin sections, tissues were fixed in 4% paraformaldehyde (PFA), 0.2% picric acid and 3.4% sucrose in PBS, and were washed in methanol before embedding in paraffin. Sections were stained according to standard Periodic acid-Schiff (PAS) or Alcian Blue methods and assessed by light microscopy.
Mouse models were performed according to the previous example. For investigating mucus, IL-8 release, and leukocytes, tissues were fixed using 4% paraformaldehyde (PFA), 0.2% picric acid and 3.4% sucrose in PBS and washed in methanol before embedding in paraffin. Mucus was analyzed using standard Periodic acid-Schiff (PAS) or alcian blue staining. MUC5AC was stained using anti-MUC5AC mouse antibody (1:200, Abcam, ab3649) and a secondary antibody conjugated with Alexa488 (Life Technologies, A-21206). Nuclei were stained with Hoe33342 (0.1 μg/ml PBS, Aplichem, Darmstadt, Germany). Quantikine ELISA kits (R&D systems) were used to measure secretion of the cytokine IL-8 by Calu3 cells.
All methods were performed as described in the previous examples. Mice were treated with ovalbumin (OVA) to induce an allergic reaction which leads to airway inflammation. […] After allergization with OVA and development of airway inflammation, excessive mucus production and inflammatory infiltration with immune cells is observed. Activation of cholinergic receptors using the muscarinic agonist carbachol (CCH) results in constriction of the airways and secretion of mucus (FIG. 5A-C). 3-day treatment using niclosamide reduced the CCH-induced constriction of the airways (FIG. 1). Furthermore, mucus secretion and inflammatory infiltrates were reduced.
OVA-induced allergic airway inflammation in mice caused pronounced airway goblet cell metaplasia. […] NFA is a well know inhibitor of Ca^2+ activated Cl^− channels and inhibits TMEM16A. The two main TMEM16 paralogs expressed in airway epithelial and smooth muscle cells, TMEM16A and TMEM16F, were expressed in HEK293 cells and the whole cell currents upon activation by the Ca^2+ ionophore ionomycin (Iono) were measured. […] Novel therapeutic strategies for the treatment of inflammatory airway diseases such as CF may therefore consider the use of inhibitors of TMEM16.
The present inventors disclose that airway epithelial knockout of TMEM16A causes a defect in basal, i.e. ATP-mediated mucus secretion. […] Mucus synthesis under inflammatory (OVA) conditions and mucus release upon cholinergic stimulation, however, were not compromised (FIG. 16C). […] Because basal mucus production still occurs in the absence of TMEM16A, other TMEM16 paralogs may also be in charge of mucus synthesis.

A further assay deals with T1, TMEM16F (Homo sapiens, UniProt Q4KMQ2).
T1 construct: expressed in transfected cells; host or cells: HEK293 cells
T1 sequence (Q4KMQ2 1-910): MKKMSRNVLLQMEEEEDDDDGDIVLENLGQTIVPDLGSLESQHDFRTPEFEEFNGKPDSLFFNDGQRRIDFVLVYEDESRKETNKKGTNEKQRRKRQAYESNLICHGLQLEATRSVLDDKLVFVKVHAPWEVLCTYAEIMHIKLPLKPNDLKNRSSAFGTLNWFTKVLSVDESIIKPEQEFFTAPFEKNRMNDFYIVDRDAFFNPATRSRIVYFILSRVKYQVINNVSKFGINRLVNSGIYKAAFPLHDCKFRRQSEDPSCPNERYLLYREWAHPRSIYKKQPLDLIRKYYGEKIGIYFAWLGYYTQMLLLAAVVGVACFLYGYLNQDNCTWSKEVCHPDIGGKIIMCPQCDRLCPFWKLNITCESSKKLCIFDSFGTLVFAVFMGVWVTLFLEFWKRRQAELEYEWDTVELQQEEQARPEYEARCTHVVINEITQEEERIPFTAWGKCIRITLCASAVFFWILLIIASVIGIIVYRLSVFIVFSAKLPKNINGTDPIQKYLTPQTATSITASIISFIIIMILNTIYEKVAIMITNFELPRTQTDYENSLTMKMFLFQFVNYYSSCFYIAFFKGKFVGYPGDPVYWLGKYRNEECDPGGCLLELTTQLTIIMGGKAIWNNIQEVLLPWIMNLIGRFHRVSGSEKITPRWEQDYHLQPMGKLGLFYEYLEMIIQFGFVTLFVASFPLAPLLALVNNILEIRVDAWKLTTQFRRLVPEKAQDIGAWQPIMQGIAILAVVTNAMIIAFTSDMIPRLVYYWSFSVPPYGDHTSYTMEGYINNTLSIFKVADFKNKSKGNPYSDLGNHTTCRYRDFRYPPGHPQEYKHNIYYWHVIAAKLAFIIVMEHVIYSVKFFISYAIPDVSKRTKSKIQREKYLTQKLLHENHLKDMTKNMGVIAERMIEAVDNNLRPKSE
Nature of the assay: Whole cell currents in HEK293 cells expressing TMEM16F (patch clamp). It counts as cell-based. The following applies: HEK293; 1 nM ionomycin; NFA. Here is the method:
(§1) FIG. 14: The TMEM16-inhibitor niflumic acid attenuates inflammatory airway disease. • A,B) OVA-sensitization induced pronounced goblet cell metaplasia as indicated by alcian blue positivity. Exposure to carbachol (CCH, 25 mg/ml, nebulizer) induced release of mucus and airway […]. Bars indicate […]. […] Mean±SEM; *significant inhibition by NFA (paired ttest). # significant difference when compared to OVA (unpaired t-test). (n) number of airways analysed or number of cells examined.
(§2) FIG. 15: Inhibition of TMEM16A and TMEM16F by niclosamide. • A) TMEM16A whole cell currents in overexpressing HEK293 cells. […]
(§3) OVA-induced allergic airway inflammation in mice caused pronounced airway goblet cell metaplasia. […] The two main TMEM16 paralogs expressed in airway epithelial and smooth muscle cells, TMEM16A and TMEM16F, were expressed in HEK293 cells and the whole cell currents upon activation by the Ca^2+ ionophore ionomycin (Iono) were measured. […]
(§4) Similar to TMEM16A, also overexpressed TMEM16F was inhibited by niclosamide (FIG. 15D). […] TMEM16A was activated by ionomycin and TMEM16A currents were measured as iodide quenching.
Background: The patch-clamp technique gives a direct electrical read-out from membranes.

In the next assay the target is T2, TMEM16A (Homo sapiens, UniProt Q5XXA6).
T2 sequence (Q5XXA6 1-986): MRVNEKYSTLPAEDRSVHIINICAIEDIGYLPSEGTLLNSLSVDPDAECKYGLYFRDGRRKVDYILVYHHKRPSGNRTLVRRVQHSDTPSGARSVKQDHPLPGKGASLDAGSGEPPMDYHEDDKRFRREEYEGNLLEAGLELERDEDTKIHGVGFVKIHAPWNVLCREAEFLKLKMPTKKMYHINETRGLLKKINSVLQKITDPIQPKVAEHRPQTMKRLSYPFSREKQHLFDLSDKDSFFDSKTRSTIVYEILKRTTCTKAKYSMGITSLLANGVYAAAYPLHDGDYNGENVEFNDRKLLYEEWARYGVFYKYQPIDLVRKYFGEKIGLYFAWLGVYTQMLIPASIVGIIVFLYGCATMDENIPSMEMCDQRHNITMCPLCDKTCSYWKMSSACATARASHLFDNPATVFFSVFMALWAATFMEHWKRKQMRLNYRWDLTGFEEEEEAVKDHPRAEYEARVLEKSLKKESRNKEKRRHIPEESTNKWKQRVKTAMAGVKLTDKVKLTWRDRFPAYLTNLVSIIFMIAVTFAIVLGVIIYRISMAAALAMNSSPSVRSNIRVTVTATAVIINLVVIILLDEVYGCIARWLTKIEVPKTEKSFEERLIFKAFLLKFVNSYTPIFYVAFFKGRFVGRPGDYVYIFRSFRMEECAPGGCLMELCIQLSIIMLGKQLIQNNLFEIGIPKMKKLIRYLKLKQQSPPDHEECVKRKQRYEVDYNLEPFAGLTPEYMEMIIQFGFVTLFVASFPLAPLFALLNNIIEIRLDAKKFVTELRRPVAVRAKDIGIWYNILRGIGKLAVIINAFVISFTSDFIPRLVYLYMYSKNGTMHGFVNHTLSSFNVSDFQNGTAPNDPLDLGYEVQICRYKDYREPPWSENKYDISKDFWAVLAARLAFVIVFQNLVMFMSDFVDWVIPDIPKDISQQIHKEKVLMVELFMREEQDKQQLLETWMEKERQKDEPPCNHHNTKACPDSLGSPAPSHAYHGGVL
In words: Whole cell currents in HEK293 cells expressing TMEM16A (patch clamp). On the set-up: expressed in transfected cells; host or cells: HEK293 cells. Format: cell-based. Conditions: HEK293; 1 nM ionomycin; NFA. Here is the method: as §1, §2, §3, §4

The subject of a further assay is endogenous TMEM16A. In words: Iodide quenching of YFP in HT29 cells stimulated with ionomycin. Format: cell-based. Here is the method: FIG. 15: Inhibition of TMEM16A and TMEM16F by niclosamide. • A) TMEM16A whole cell currents in overexpressing HEK293 cells. […] Rate of YFP quenching (arbitrary units (au/second), when applying 20 mM iodide to the extracellular bath solution. HT29 cells stably overexpressing YFP were stimulated with […] ionomycin. 100,000 cells were seeded/well. Mean±SEM; (number of experiments) #significant inhibition when compared to the absence of the inhibitor (p<0.05; unpaired t-test); *significant activation by UTP (paired t-test).
Similar to TMEM16A, also overexpressed TMEM16F was inhibited by niclosamide (FIG. 15D). The effect of niclosamide was also examined on endogenous TMEM16A expressed in HT29 colonic carcinoma cells, which were stably transfected with iodide-sensitive yellow fluorescent protein (YFP). TMEM16A was activated by ionomycin and TMEM16A currents were measured as iodide quenching.

Setting [4] is: OVA-sensitized mice, acute exposure to TMEM16A activator.
The mark [5] stands for this setting: OVA-sensitized mice, 20 mg/kg/day intratracheal for three days before CCH, 20 mg/kg/day.

Entries after “also recorded” stand apart in the source; their conditions may differ.

On to `CCc1oc2ccccc2c1C(=O)c1cc(Br)c(O)c(Br)c1` [Benzbromarone, (3,5-dibromo-4-hydroxyphenyl) (2-ethyl-1-benzofuran-3-yl)methanone], for which the mucus production result in assay [1] is recorded as “largely reduced”.
Turning to `CC(C)(C)C1CCc2c(sc(NC(=O)c3ccco3)c2C(=O)O)C1` (stereo not drawn) [CaCCinhAO1], the “increase of FM4-64 fluorescence upon stimulation with ionomycin” value in assay [2] is on record as “inhibition”.
Turning to `COCCN(C(=O)c1cc(OC)c(OC)c(OC)c1)c1nc(-c2ccccc2)cs1` [Eact], in assay [3] (setting [4]), the airway contraction entry is given as “airway contraction” and the mucus release result is on record as “induces massive mucus release”.
`O=C(O)c1cccnc1Nc1cccc(C(F)(F)F)c1` [NFA, niflumic acid]: in assay [3] (setting [5]), the “CCH-induced airway contraction (airway cross sections)” value is recorded as “completely blocked; also recorded: strongly attenuated” and the “mucus production / airway mucus” value is “abolished; also recorded: strongly attenuated”. Also, the OVA-induced mucus production result in assay [3] is reported as “strongly reduced”. Also, in assay [3] (listed as niflumic acid), the OVA-induced mucus production result is “inhibited mucus production”. Further, the “TMEM16F whole cell current activated by ionomycin” value at TMEM16F is given as “potently suppressed”. Further, the “TMEM16A whole cell current activated by ionomycin” value on TMEM16A is “potently suppressed”.
Take `O=C(Nc1ncc([N+](=O)[O-])s1)c1ccccc1O` [tizoxanide, 2-hydroxy-N-(5-nitro-1,3-thiazol-2-yl)benzamide]: the “potency compared with CaCCinhAO1 or dichlorophen” value in the assay with endogenous TMEM16A (HT29 YFP iodide quenching) is reported as “more potent”. Also, in the assay with endogenous TMEM16A (HT29 cells stably expressing YFP, ionomycin, 20 mM iodide), the “inhibition of endogenous TMEM16A (iodide quenching of YFP)” value is given as “low nanomolar range”.

These data come from patent US20210283110A1, “COMPOUND FOR USE IN THE TREATMENT OF A DISEASE CHARACTERIZED BY DYSREGULATED MUCUS PRODUCTION AND/OR SECRETION” (UNIVERSITÄT REGENSBURG, priority 2018, published 2021).
